Our source for the Papp, efflux ratio and IC50 values is patent US11802127B2, “3,4-dihydro-2,7-naphthyridine-1,6(2H,7H)-diones as MEK inhibitors” (Pfizer Inc., priority 2021, dated 2023).

A short description of series [1]: MDR1 LLC-PK1 and BCRP MDCKII Permeability Assay: permeability coefficient (Papp). It is filed as in vitro ADME. The note with it: MDCK, test article 1 μM, 37° C. The procedure:
(§1) Both LLC-PK1 and MDR1 transfected LLC-PK1 cells were cultured and plated according to manufacturer's recommendations with the exception that the passage media contained only 2% fetal bovine serum to extend passage time out to seven days.
(§2) BCRP transfected MDCKII canine P-gp knockout cell line was cultured and plated according to manufacturer's recommendations.
(§3) Both positive and negative controls were used to assess functionality of P-gp or BCRP efflux in the assays. Stock solutions for assay controls and the test article were prepared in DMSO for final test concentrations of 10 and 1 μM, respectively. Final organic concentration in the assay was 1%. All dosing solutions contained 10 μM lucifer yellow to monitor LLC-PK1 or MDCKII cell monolayer integrity.
(§4) For the apical to basolateral determination (A to B), 75 μL of the test article in transport buffer were added to the apical side of the individual transwells and 250 μL of basolateral media, without compound or lucifer yellow, were added to each well. For the basolateral to apical determination (B to A), 250 μL of test article in transport buffer were added to each well and 75 μL transport buffer, without compound or lucifer yellow, were added to each transwell. All tests were performed in triplicate, and each compound was tested for both apical to basolateral and basolateral to apical transport. The plates were incubated for 2 hours on a Lab-Line Instruments Titer Orbital Shaker (VWR, West Chester, PA) at 50 rpm and 37° C. with 5% CO2. All culture plates were removed from the incubator and 50 μL of media were removed from the apical and basolateral portion of each well and added to 150 μL of 1 μM labetalol in 2:1 acetonitrile (acetonitrile): H2O, v/v.
(§5) The plates were read using a Molecular Devices (Sunnyvale, CA) Gemini Fluorometer to evaluate the lucifer yellow concentrations at excitation/emission wavelengths of 425/535 nm. These values were accepted when found to be below 2% for apical to basolateral and 5% basolateral to apical flux across the MDR1-transfected LLC-PK1 or BCRP-transfected MDCKII cell monolayers. The plates were sealed and the contents of each well analyzed by LC-MS/MS. The compound concentrations were determined from the ratio of the peak areas of the compound to the internal standard (labetalol) in comparison to the dosing solution.
(§6) The LC-MS/MS system was comprised of an HTS-PAL autosampler (Leap Technologies, Carrboro, NC), an HP1200 HPLC (Agilent, Palo Alto, CA), and a MDS Sciex 4000 Q Trap system (Applied Biosystems, Foster City, CA). […] The total run time, including re-equilibration, for a single injection was 1.2 minutes. Mass spectrometric detection of the analytes was accomplished using the ion spray positive mode. Analyte responses were measured by multiple reaction monitoring (MRM) of transitions unique to each compound (the protonated precursor ion and selected product ions for each test article and m/z 329 to m/z 162 for labetalol, the internal standard).

A further series deals with T1, P-gp (MDR1) (Homo sapiens, UniProt P08183).
T1 construct: expressed in transfected cells; host or cells: LLC-PK1 (porcine kidney) cells transfected with MDR1
The experiment in a line: Efflux ratio in MDR1 transfected LLC-PK1 cells. Type of series: in vitro ADME. Particulars: pig, Papp(B−A)/Papp(A−B). The procedure: as §1, §3, §4, §5, §6
(§7) An efflux ratio is calculated from the mean apical to basolateral (A−B) Papp data and basolateral to apical (B−A) Papp data: Efflux ratio=Papp(B−A)/Papp(A−B)

A further series has as its target T2, BCRP (hBCRP) (Homo sapiens, UniProt Q9UNQ0).
T2 construct: expressed in transfected cells; host or cells: MDCKII (canine kidney) cells, canine P-gp knockout, transfected with BCRP
T2 sequence (Q9UNQ0 1-655): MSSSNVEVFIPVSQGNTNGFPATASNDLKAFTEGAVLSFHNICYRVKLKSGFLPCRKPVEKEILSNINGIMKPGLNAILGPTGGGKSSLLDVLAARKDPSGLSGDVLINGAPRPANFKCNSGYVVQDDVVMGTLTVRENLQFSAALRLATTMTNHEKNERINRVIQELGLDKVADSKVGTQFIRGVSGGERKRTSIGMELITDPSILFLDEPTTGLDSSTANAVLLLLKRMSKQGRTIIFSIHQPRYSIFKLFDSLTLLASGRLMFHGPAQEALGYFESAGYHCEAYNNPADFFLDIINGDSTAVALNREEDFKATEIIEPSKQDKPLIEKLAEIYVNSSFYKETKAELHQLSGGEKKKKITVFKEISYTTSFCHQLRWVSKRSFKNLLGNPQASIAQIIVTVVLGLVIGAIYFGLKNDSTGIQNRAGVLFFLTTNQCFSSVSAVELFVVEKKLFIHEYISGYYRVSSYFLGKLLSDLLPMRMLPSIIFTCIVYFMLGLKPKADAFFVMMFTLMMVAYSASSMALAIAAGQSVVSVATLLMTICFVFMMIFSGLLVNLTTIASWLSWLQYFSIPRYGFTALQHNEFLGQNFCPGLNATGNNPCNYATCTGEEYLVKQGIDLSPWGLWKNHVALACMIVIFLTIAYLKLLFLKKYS
The experiment in a line: Efflux ratio in BCRP transfected MDCKII canine P-gp knockout cells. It is filed as in vitro ADME. Particulars: Papp(B−A)/Papp(A−B), read-out: Efflux ratio MDCKII-hBCRP knock-in,canine pg-P KO. The procedure: as §2, §3, §4, §5, §6, §7

The test system of series [2] is ERK1/2(Thr202/Tyr204) phosphorylation (MEK-dependent) in A375 cells. The experiment in a line: Cellular Phospho-p44/42 MAPK (Erk1/2) (Thr202/Tyr204) Assay. Type of series: cell-based. The note with it: Homo sapiens, A-375, 1-hour incubation, pERK1/2 (Thr202/Tyr204) In-Cell Western normalized to GAPDH. How it is done:
Inhibition of ERK1/2(Thr202/Tyr204) phosphorylation was determined by the following cellular assay, which comprises incubating cells with a compound for 1 hour and quantifying pERK signal by In-Cell Western on fixed cells and normalizing to GAPDH signal. A375 cells were obtained from the ATCC and grown in DMEM supplemented with 10% fetal bovine serum, penicillin/streptomycin, Glutamax®, non-essential amino acids, and sodium pyruvate. Cells were plated in 96-well plates at 30,000 cells/well and allowed to attach overnight at 37° C./5% CO2. Cells were treated with compounds prepared as a 10-point, 1:3 dilution series (range: 20 μM-0.05 nM; maximum concentration varied from 20 μM-1 μM), with a final DMSO concentration of 0.5%. Control wells contained either 0.5% DMSO alone (no inhibition control) or 1 μM of a potent control compound (complete inhibition control). After a 1-hour incubation, cells were fixed in 3.7% formaldehyde in dPBS (Dulbecco's phosphate-buffered saline) at room temperature for 20 minutes. Cells were then washed with dPBS and permeabilized in 100% MeOH at room temperature for 10 minutes. Following permeabilization, cells were washed in dPBS and incubated in LI-COR Blocking Buffer (LI-COR Biosciences, Cat #927-40000) for 1 hour or longer. Plates were then incubated with an antibody specific for the MEK-dependent ERK1/2 phosphorylation sites, threonine 202 and tyrosine 204 (Cell Signaling Technologies; Cat #9101), downstream of MEK in the MAP kinase signal transduction pathway, as well as GAPDH (Millipore; Cat #MAB374). pErk1/2 (Thr202/Tyr204) antibody was diluted in LI-COR blocking buffer containing 0.05% Tween-20 at 1:250; GAPDH was diluted at 1:2,500. The plates were incubated overnight at 4° C. After washing with PBS/0.05% Tween-20, the cells were incubated with fluorescently-labeled secondary antibodies (Anti-rabbit-Alexa Flour680, Invitrogen Cat #A21109; Anti-mouse-IRDye800CW, LI-COR Biosciences Cat #926-32210, both at 1:1000 dilution) for 1 hour. Cells were then washed, as above, and analyzed for fluorescence at both 680 and 800 nm wavelengths using the Odyssey CLx Infrared Imaging System (LI-COR Biosciences). Phosphorylated Erk1/2 (Thr202/Tyr204) signal was normalized to GAPDH signal for each well.

T1 sequence (P08183 whole entry): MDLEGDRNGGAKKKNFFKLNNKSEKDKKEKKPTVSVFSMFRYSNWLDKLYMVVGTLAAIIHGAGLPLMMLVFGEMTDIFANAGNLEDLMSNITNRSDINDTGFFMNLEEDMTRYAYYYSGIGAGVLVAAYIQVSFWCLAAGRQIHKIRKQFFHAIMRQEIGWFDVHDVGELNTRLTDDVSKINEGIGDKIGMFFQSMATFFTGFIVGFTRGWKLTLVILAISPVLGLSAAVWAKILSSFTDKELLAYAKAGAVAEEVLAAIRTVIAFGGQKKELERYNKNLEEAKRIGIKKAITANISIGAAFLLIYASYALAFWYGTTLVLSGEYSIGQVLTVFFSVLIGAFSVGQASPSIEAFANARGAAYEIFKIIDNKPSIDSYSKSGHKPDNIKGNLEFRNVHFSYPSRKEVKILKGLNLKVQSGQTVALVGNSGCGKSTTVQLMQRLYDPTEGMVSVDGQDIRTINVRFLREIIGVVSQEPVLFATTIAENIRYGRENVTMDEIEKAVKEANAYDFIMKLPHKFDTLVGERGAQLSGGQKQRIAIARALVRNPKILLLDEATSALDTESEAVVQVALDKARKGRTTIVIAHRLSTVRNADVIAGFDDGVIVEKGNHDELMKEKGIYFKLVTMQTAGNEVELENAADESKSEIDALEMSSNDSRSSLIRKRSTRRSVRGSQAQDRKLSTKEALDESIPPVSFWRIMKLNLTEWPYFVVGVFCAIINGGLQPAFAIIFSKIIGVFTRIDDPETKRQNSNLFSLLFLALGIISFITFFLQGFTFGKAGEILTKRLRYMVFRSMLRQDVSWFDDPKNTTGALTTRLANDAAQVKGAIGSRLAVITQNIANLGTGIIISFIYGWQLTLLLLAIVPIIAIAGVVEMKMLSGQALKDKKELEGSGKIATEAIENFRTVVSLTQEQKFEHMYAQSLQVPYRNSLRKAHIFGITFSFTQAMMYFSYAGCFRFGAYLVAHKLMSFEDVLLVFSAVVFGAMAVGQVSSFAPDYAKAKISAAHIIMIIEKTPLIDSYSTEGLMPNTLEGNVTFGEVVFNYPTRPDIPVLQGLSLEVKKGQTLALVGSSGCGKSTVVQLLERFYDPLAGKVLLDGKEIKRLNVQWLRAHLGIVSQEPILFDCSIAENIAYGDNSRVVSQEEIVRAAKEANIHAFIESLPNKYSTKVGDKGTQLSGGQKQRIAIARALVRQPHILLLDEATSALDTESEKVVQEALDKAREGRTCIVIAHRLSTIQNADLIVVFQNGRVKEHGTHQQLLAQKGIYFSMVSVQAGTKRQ

By Papp is commonly meant the rate of passage across a membrane or cell layer, normalised by area and donor concentration. A lower Papp goes with poor permeation. For orientation: IC50 means the concentration that inhibits the measured activity by half. Low values mean greater potency, high ones weaker potency. `Cn1c(Nc2ccc(Br)cc2F)c2c(cc1=O)CCN(C1CC1)C2=O` [Example 1]: the Papp at 2 h, 1 μM in series [1] is 27.2 ×10⁻⁶ cm/s. In addition, the efflux ratio at 2 h, 1 μM at P-gp (MDR1) turned out to be 1.4; at BCRP (hBCRP), 1.1. In addition, half-maximal inhibition in series [2] (IC50) was put at 562 nM.
The matching figures for `CCON1CCc2cc(=O)n(C)c(Nc3ccc(Br)cc3F)c2C1=O` [Example 3, 8-((4-bromo-2-fluorophenyl)amino)-2-ethoxy-7-methyl-3,4-dihydro-2,7-naphthyridine-1,6(2H,7H)-dione]: 46.2 ×10⁻⁶ cm/s, 1, 0.9 and 456 nM.
The matching figures for `CSc1ccc(Nc2c3c(cc(=O)n2C)CCN(C2CC2)C3=O)c(F)c1` [Example 4, 2-cyclopropyl-8-((2-fluoro-4-(methylthio)phenyl)amino)-7-methyl-3,4-dihydro-2,7-naphthyridine-1,6(2H,7H)-dione]: 26.1 ×10⁻⁶ cm/s, 1.3, 1.1 and 74 nM.
With `CC(C)c1ccc(Nc2c3c(cc(=O)n2C)CCN(OCCO)C3=O)c(F)c1` [Example 18, 8-((2-fluoro-4-isopropylphenyl)amino)-2-(2-hydroxyethoxy)-7-methyl-3,4-dihydro-2,7-naphthyrdine-1,6(2H,7H)-dione], the results for the efflux ratio at 2 h, 1 μM on P-gp (MDR1) and at BCRP (hBCRP) were 2.3 and 2, respectively. In series [2], this compound yielded an IC50 of 39 nM.
Consider `Cc1c2c(c(Nc3ccc(Br)cc3F)n(C)c1=O)C(=O)NCC2` [Example 47, 8-((4-bromo-2-fluorophenyl)amino)-5,7-dimethyl-3,4-dihydro-2,7-naphthyridine-1,6(2H,7H)-dione], for which the Papp at 2 h, 1 μM in series [1] stood at 31.5 ×10⁻⁶ cm/s. Moreover, the efflux ratio at 2 h, 1 μM at P-gp (MDR1) is 1.3. The same compound registered an IC50 in series [2] of 97 nM.
The matching figures for `CSc1ccc(Nc2c3c(c(C)c(=O)n2C)CCN(OCCO)C3=O)c(F)c1` [Example 61, 8-((2-fluoro-4-(methylthio)phenyl)amino)-2-(2-hydroxyethoxy)-5,7-dimethyl-3,4-dihydro-2,7-naphthyridine-1,6(2H,7H)-dione]: 26.9 ×10⁻⁶ cm/s, 3 and 11 nM.
For `Cc1c2c(c(Nc3ccc(OC(F)F)cc3F)n(C)c1=O)C(=O)N(OCCO)CC2` [Example 62, 8-((4-(difluoromethoxy)-2-fluorophenyl)amino)-2-(2-hydroxyethoxy)-5,7-dimethyl-3,4-dihydro-2,7-naphthyridine-1,6(2H,7H)-dione], in that order: 26.1 ×10⁻⁶ cm/s, 5 and 17 nM.
For the compound `Cn1c(Nc2ccc(Br)cc2F)c2c(cc1=O)C(c1ccccc1)CNC2=O` (centres unmarked) [Example 64, 8-((4-bromo-2-fluorophenyl)amino)-7-methyl-4-phenyl-3,4-dihydro-2,7-naphthyridine-1,6(2H,7H)-dione], the efflux ratio at 2 h, 1 μM at BCRP (hBCRP) came to 1.5. The IC50 in series [2] was 2 nM.
Compound `CSc1ccc(Nc2c3c(cc(=O)n2C)C(c2ccccc2)CNC3=O)c(F)c1` (centres unmarked) [Example 65, 8-((2-fluoro-4-(methylthio)phenyl)amino)-7-methyl-4-phenyl-3,4-dihydro-2,7-naphthyridine-1,6(2H,7H)-dione] had a Papp at 2 h, 1 μM in series [1] of 12.5 ×10⁻⁶ cm/s. Further, the efflux ratio at 2 h, 1 μM at BCRP (hBCRP) is 0.8. Further, the IC50 in series [2] was determined as 2 nM.
For `CC1CNC(=O)c2c1cc(=O)n(C)c2Nc1ccc(Br)cc1F` (centres unmarked) [Example 66, 8-((4-bromo-2-fluorophenyl)amino)-4,7-dimethyl-3,4-dihydro-2,7-naphthyrdine-1,6(2H,7H)-dione], in that order: 24.9 ×10⁻⁶ cm/s, 1 and 27 nM.
For `CSc1ccc(Nc2c3c(cc(=O)n2C)C(C)CNC3=O)c(F)c1` (centres unmarked) [Example 67, 8-((2-fluoro-4-(methylthio)phenyl)amino)-4,7-dimethyl-3,4-dihydro-2,7-naphthyrdine-1,6(2H,7H)-dione], in that order: 28.3 ×10⁻⁶ cm/s, 1.1 and 8 nM.
For `CC1CN(OCCO)C(=O)c2c1cc(=O)n(C)c2Nc1ccc(Br)cc1F` (centres unmarked) [Example 68, 8-((4-bromo-2-fluorophenyl)amino)-2-(2-hydroxyethoxy)-4,7-dimethyl-3,4-dihydro-2,7-naphthyridine-1,6(2H,7H)-dione], in that order: 18.7 ×10⁻⁶ cm/s, 2.5 and 3 nM.
In turn, `CSc1ccc(Nc2c3c(cc(=O)n2C)C(C)CN(OCCO)C3=O)c(F)c1` (centres unmarked) [Example 69, 8-((2-fluoro-4-(methylthio)phenyl)amino)-2-(2-hydroxyethoxy)-4,7-dimethyl-3,4-dihydro-2,7-naphthyridine-1,6(2H,7H)-dione] showed a Papp at 2 h, 1 μM in series [1] of 19.6 ×10⁻⁶ cm/s. In addition, the efflux ratio at 2 h, 1 μM on BCRP (hBCRP) came to 2.3. In series [2], this compound came in with an IC50 of 2 nM.
